# Key:
# [1] = tested on: BaF3; assay: Antiproliferative activity against mouse Ba/F3 cells assessed as growth inhibition measured after 72 hrs by CellTiter-Glo assay; assay type: functional
# [2] = Antiproliferative activity against human A375P cells assessed as growth inhibition measured after 72 hrs by CellTiter-Glo assay; assay type: functional
# [3] = biological target: T1, CYP1A2 (Homo sapiens, UniProt P05177); assay: Inhibition of CYP1A2 (unknown origin) at 10 uM relative to control; assay type: ADME
# T1 sequence (P05177 whole entry): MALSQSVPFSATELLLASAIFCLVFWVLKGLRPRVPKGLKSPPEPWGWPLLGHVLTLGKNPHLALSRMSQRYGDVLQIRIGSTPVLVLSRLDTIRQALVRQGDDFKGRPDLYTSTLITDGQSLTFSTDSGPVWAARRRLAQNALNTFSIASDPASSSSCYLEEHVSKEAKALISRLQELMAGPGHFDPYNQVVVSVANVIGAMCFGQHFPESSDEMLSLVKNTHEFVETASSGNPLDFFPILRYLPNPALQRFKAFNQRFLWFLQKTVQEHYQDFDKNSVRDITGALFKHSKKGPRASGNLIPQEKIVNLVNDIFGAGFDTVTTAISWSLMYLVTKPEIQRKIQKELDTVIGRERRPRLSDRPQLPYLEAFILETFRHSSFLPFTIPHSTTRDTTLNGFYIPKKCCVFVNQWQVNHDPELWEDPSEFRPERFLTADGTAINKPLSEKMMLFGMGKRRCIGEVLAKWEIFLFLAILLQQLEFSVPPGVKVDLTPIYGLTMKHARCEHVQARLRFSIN
# [4] = tested on: BaF3; assay: Antiproliferative activity against mouse Ba/F3 cells harbouring FLT3 ITD mutant assessed as growth inhibition measured after 72 hrs by CellTiter-Glo assay; assay type: functional
# [5] = tested on: MDA-MB-231; assay: Antiproliferative activity against human MDA-MB-231 cells assessed as growth inhibition measured after 72 hrs by CellTiter-Glo assay; assay type: functional
# [6] = tested on: BaF3; assay: Antiproliferative activity against mouse Ba/F3 cells harbouring FLT3 ITD F691L mutant assessed as growth inhibition measured after 72 hrs by CellTiter-Glo assay; assay type: functional
# [7] = biological target: Focal adhesion kinase 1 (Homo sapiens, UniProt Q05397); assay: Inhibition of recombinant FAK (unknown origin) by radiometric kinase assay
# [8] = biological target: CYP2D6 (Homo sapiens, UniProt P10635); assay: Inhibition of CYP2D6 (unknown origin) at 10 uM relative to control; assay type: ADME
# [9] = Inhibition of FLT3 D835Y (unknown origin); parameters: species or system Homo sapiens
# [10] = tested on: HCT-116; assay: Antiproliferative activity against human HCT-116 cells assessed as growth inhibition measured after 72 hrs by CellTiter-Glo assay; assay type: functional
# [11] = biological target: CYP3A4 (Homo sapiens, UniProt P08684); assay: Inhibition of CYP3A4 (unknown origin) at 10 uM relative to control; assay type: ADME
# [12] = Metabolic stability in human liver microsomes assessed as compound remaining at 1 uM measured after 1 hr; assay type: ADME, Microsome; conditions: read-out: Stabilty
# [13] = tested on: BaF3; assay: Antiproliferative activity against mouse Ba/F3 cells harbouring FLT3 D835Y mutant assessed as growth inhibition measured after 72 hrs by CellTiter-Glo assay; assay type: functional
# [14] = biological target: CYP2C19 (Homo sapiens, UniProt P33261); assay: Inhibition of CYP2C19 (unknown origin) at 10 uM relative to control; assay type: ADME
# [15] = tested on: BaF3; assay: Antiproliferative activity against mouse Ba/F3 cells harbouring FLT3 ITD D835Y mutant assessed as growth inhibition measured after 72 hrs by CellTiter-Glo assay; assay type: functional
# [16] = tested on: BaF3; assay: Antiproliferative activity against mouse Ba/F3 cells harbouring FLT3 ITD F691I mutant assessed as growth inhibition measured after 72 hrs by CellTiter-Glo assay; assay type: functional
# [17] = biological target: CYP2C9 (Homo sapiens, UniProt P11712); assay: Inhibition of CYP2C9 (unknown origin) at 10 uM relative to control; assay type: ADME
# Sequence of CYP2C9 (P11712 whole entry): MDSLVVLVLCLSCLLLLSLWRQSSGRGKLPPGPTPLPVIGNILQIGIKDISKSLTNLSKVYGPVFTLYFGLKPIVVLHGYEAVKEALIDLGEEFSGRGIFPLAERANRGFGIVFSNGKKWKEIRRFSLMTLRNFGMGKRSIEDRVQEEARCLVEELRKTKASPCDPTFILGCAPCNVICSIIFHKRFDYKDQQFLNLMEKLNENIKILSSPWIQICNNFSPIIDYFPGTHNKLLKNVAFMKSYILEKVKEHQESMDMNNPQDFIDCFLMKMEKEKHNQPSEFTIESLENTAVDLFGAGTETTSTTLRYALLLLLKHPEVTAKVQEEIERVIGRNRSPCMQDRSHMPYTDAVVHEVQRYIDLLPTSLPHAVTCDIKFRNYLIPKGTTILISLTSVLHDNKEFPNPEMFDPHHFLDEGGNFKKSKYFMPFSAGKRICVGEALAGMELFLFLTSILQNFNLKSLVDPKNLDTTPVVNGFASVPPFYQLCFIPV
# Sequence of CYP2D6 (P10635 whole entry): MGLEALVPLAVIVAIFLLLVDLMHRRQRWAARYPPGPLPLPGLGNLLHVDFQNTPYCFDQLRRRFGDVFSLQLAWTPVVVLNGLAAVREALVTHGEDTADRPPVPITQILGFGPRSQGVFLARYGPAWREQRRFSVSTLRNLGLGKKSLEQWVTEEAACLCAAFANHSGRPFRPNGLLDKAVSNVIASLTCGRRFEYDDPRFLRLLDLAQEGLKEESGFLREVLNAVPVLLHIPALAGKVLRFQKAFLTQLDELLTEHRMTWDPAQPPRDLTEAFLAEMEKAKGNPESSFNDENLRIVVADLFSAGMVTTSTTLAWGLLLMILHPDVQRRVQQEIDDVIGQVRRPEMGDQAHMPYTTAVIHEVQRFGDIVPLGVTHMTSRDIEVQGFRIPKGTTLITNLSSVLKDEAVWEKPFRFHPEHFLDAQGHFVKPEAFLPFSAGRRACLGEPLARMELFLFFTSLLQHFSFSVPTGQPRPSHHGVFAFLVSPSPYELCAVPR
# Sequence of CYP2C19 (P33261 whole entry): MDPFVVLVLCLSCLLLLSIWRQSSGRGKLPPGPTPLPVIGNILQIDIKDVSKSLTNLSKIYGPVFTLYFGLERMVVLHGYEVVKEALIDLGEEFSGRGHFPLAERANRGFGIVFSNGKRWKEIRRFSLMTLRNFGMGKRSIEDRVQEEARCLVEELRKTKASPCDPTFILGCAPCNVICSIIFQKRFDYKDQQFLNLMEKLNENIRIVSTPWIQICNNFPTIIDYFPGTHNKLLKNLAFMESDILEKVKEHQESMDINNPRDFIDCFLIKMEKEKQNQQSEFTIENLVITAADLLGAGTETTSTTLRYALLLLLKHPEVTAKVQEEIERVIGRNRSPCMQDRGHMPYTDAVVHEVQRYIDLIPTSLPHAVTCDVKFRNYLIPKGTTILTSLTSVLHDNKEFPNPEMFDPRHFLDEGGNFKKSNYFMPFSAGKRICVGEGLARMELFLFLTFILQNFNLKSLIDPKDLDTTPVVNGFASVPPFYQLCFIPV
# Sequence of CYP3A4 (P08684 whole entry): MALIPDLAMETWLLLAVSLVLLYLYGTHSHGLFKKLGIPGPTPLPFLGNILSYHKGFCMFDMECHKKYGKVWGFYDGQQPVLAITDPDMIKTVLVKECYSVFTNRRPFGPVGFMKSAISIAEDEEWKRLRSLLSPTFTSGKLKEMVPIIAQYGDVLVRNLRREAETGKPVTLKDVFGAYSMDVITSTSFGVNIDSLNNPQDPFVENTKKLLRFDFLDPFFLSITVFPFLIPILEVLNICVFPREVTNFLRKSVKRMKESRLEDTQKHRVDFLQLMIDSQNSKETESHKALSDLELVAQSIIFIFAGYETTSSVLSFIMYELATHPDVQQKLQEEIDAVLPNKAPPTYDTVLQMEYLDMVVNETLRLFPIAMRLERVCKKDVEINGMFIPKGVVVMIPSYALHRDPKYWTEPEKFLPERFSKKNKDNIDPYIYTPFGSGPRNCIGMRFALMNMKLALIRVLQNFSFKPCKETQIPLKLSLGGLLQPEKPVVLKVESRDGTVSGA
# Sequence of Focal adhesion kinase 1 (Q05397 whole entry): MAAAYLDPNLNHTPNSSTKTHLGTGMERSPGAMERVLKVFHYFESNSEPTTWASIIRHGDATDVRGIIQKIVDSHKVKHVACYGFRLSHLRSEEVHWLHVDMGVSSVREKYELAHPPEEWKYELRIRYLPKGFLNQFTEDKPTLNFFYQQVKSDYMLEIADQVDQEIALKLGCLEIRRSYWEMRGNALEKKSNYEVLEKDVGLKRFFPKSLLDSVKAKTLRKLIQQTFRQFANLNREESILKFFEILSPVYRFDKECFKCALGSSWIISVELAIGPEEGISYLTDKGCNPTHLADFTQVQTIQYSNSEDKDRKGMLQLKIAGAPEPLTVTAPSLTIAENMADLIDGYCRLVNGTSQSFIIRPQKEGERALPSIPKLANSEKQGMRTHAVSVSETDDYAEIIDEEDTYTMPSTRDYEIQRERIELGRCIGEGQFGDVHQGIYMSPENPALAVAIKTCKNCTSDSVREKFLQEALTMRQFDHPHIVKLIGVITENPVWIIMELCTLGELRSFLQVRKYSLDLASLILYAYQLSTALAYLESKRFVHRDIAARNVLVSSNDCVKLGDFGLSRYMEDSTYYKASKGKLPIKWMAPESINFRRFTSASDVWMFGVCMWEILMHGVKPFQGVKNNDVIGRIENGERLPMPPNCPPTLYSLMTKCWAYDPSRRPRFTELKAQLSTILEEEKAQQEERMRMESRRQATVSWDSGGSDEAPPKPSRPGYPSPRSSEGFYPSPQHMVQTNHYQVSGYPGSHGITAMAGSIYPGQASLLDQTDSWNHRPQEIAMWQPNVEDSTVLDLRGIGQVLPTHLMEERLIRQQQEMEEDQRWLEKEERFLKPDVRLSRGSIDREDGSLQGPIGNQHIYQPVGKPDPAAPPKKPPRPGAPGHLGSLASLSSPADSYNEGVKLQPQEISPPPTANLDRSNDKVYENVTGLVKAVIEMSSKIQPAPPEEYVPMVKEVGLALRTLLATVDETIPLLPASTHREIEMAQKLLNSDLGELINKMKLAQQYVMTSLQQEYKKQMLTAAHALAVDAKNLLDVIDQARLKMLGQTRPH
Compound,inhibition at 10 µM [3] [%],IC50 [7] [nM],inhibition at 10 µM [8] [%],IC50 [9] [nM],inhibition at 10 µM [11] [%],"remaining at 1 h, 1 µM [12] [%]",inhibition at 10 µM [14] [%],"GI50 ([1]; Mus musculus, BaF3) [nM]","GI50 ([2]; Homo sapiens, A375P) [nM]","GI50 ([4]; Mus musculus, BaF3) [nM]","GI50 ([5]; Homo sapiens, MDA-MB-231) [nM]","GI50 ([6]; Mus musculus, BaF3) [nM]","GI50 ([10]; Homo sapiens, HCT-116) [nM]","GI50 ([13]; Mus musculus, BaF3) [nM]","GI50 ([15]; Mus musculus, BaF3) [nM]","GI50 ([16]; Mus musculus, BaF3) [nM]",also measured
CS(=O)(=O)Nc1cccc(-c2csc3cnc(Nc4ccc(N5CCC(O)CC5)cc4)nc23)c1,34.9,16,61.5,< 0.5,57.9,54.8,56.5,,,,,,,,,,GI50 [1]: 600 nM; GI50 [2]: 1930 nM; GI50 [4]: 14.5 nM; GI50 [5]: 440 nM; GI50 [6]: 299 nM; GI50 [10]: 520 nM; GI50 [13]: 23 nM; GI50 [15]: 14 nM; GI50 [16]: 587 nM
CCN1CCN(c2ccc(Nc3ncc4scc(-c5cccc(OC)c5)c4n3)cc2)CC1,35.1,12,86.4,< 0.5,72.1,83.7,79.4,405,510,1100,280,222,240,46.5,90.7,390,inhibition at 10 µM [17]: 89.3%
CS(=O)(=O)Nc1cccc(-c2csc3cnc(Nc4ccc(N5CCNCC5)cc4)nc23)c1,67.5,12,84.7,< 0.5,57.3,100,57.5,550,490,7.4,460,103,250,1.6,11,183,inhibition at 10 µM [17]: 63.2%
CCN1CCN(c2ccc(Nc3ncc4scc(-c5ccc6cc[nH]c6c5)c4n3)cc2)CC1,67.3,54,89.4,< 0.5,76,89.3,76.5,647,500,20.8,570,57.7,170,6.2,32.3,142,inhibition at 10 µM [17]: 91.7%
CCN1CCN(c2ccc(Nc3ncc4scc(-c5ccccn5)c4n3)cc2)CC1,,12,,< 0.5,,54.2,,206,420,9.1,290,55,270,1.2,14.2,164,
CNC(=O)c1ccccc1Nc1nc(Nc2ccc(N3CCOCC3)cc2OC)ncc1Cl,73.3,,83.2,,71.2,,50.5,,1690,,1490,,270,,,,inhibition at 10 µM [17]: 27%
CCN1CCN(c2ccc(Nc3ncc4scc(-c5cccc(N(C)S(C)(=O)=O)c5)c4n3)cc2)CC1,,21,,< 0.5,,57.2,,695,220,31.7,450,117,190,53,14.3,301,
CCN1CCN(c2ccc(Nc3ncc4scc(-c5cccc(S(C)(=O)=O)c5)c4n3)cc2)CC1,,18,,< 0.5,,55.5,,427,640,20.6,520,170,510,8.7,25.2,245,
CCN1CCN(c2cccc(Nc3ncc4scc(-c5cccc(NS(C)(=O)=O)c5)c4n3)c2)CC1,,13,,,,100,,,900,,1420,,420,,,,
CCc1nc(C(N)=O)c(Nc2ccc(N3CCC(N4CCN(C)CC4)CC3)c(OC)c2)nc1NC1CCOCC1 [GILTERITINIB],,,,,,,,,,,,82.8,,2,5,259,
CCN1CCN(c2ccc(Nc3ncc4scc(-c5cnc6ccccc6c5)c4n3)cc2)CC1,,29,,,,44.1,,,8050,,880,,370,,,,
CCN1CCN(c2ccc(Nc3ncc4scc(-c5cccnc5)c4n3)cc2)CC1,,31,,< 0.5,,68.9,,596,710,20,820,140,9130,7.1,28.2,299,
CCN1CCN(c2ccc(Nc3ncc4scc(-c5cccc(S(=O)(=O)NC)c5)c4n3)cc2)CC1,,11,,< 0.5,,60.2,,468,400,34.7,420,226,170,6.1,13.2,243,
CC(C)(C)c1cc(NC(=O)Nc2ccc(-c3cn4c(n3)sc3cc(OCCN5CCOCC5)ccc34)cc2)no1 [QUIZARTINIB],,,,,,,,> 10000,,0.6,,68.2,,2.2,12.9,> 10000,

# From ChEMBL document CHEMBL4837239, “Identification of Thieno[3,2-d]pyrimidine Derivatives as Dual Inhibitors of Focal Adhesion Kinase and FMS-like Tyrosine Kinase 3” (J Med Chem, 2021)
